Results as given in US20240116882A1, “NOVEL BENZOTRIAZOLE DERIVATIVE HAVING INHIBITORY ACTIVITY AGAINST ECTONUCLEOTIDE PYROPHOSPHATASE-PHOSPHODIESTERASE, AND USE THEREOF” (TXINNO BIOSCIENCE INC., priority 2021, published 2024).
Where a name gives a salt, the structure may show the parent alone.

Target: T1, human recombinant ENPP1 enzymes (Homo sapiens, UniProt P22413)
T1 construct: purchased R & D systems
T1 sequence (P22413 1-925): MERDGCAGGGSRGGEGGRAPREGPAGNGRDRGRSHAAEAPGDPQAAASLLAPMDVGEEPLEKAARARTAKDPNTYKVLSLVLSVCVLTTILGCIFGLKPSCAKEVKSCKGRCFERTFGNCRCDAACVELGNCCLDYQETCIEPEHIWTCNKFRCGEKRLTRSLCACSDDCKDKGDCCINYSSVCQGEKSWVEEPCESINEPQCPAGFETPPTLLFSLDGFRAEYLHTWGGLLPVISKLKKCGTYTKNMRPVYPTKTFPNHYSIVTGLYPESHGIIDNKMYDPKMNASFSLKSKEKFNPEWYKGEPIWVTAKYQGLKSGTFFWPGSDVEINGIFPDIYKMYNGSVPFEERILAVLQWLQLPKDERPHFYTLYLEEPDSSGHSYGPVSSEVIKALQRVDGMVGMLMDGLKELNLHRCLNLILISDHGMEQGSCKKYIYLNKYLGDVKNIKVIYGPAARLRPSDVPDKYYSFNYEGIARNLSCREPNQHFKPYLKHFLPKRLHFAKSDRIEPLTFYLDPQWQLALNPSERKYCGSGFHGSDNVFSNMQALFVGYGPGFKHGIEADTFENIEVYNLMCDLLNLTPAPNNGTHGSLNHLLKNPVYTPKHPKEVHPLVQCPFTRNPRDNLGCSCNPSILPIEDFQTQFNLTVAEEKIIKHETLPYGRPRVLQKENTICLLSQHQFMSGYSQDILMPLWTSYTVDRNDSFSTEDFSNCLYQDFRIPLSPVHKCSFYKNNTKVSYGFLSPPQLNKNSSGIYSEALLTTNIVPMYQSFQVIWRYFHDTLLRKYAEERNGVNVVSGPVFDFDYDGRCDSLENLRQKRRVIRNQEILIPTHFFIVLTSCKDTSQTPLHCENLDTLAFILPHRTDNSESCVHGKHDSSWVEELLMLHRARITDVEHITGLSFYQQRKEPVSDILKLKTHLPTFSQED
Test: ENPP1 Enzyme Assay with cGAMP Substrate (AMP-Glo)
Format: biochemical
Conditions: human recombinant ENPP1, cGAMP 5 μM, 37° C. 90 minutes, AMP-Glo luminescence; read-out: Enzymatic activity (IC50)
Description: ENPP1 hydrolyzes nucleotides or nucleotide derivatives to produce nucleoside-5′-monophosphate and pyrophosphate. In addition, ENPP1 hydrolyzes 2′,3′-cGAMP to produce 5′-adenosine monophosphate (AMP) and 5′-guanosine monophosphate (GMP). AMP produced from the reaction is measured using the AMP-Glo® kit (Promega). The AMP-Glo® kit contains two reagents. The first reagent terminates the AMP-producing enzymatic reaction, removes ATP and converts the produced AMP into ADP. The second reagent converts ADP into ATP which is used to generate luminescence in the luciferase reaction. The amount of luminescence measured is proportional to the amount of AMP produced by ENPP1.
The final reaction solution contains 50 mM Tris (pH 8.5) buffer, 250 mM NaCl, 0.5 mM CaCl2), 1 μM ZnCl2, 5% glycerol and 1% DMSO. Serially diluted ENPP1 inhibitors (typically in the range of 10 μM to 0.5 nM) were pre-stored with human recombinant ENPP1 enzymes (R & D systems) at 3 ng/reaction and room temperature (RT) for 5 to 10 minutes. The reaction was initiated by addition of cGAMP (at a final concentration of 5 μM) and reacted at 37° C. for 90 minutes. At the end of the reaction, 10 μl of the AMP-Glo first reagent was added to stop the reaction and the result was stored at room temperature for 1 hour. After storage, 20 μl of an AMP detection solution (a mixture of AMP-Glo II reagent and Kinase-Glo at a ratio of 1:100) was added and stored at room temperature for 1 hour. Luminescence signals were measured using a Victor® plate reader (Perkin Elmer). The maximal activity control (containing enzymes and substrates in the presence of 1% DMSO; MAX) and the minimal activity control (containing substrates and 1% DMSO; MIN) were evaluated simultaneously. In each experiment, serially diluted reference ENPP1 inhibitors were tested as well. IC50, indicating % residual activity versus compound concentration was determined by fitting inhibition curves using the 3-parameter analysis of GraphPad Prism® software. Serially diluted samples of one compound were tested two or more times and an average IC50 of each compound was calculated.

| Structure (SMILES) | IC50 [nM] |
| --- | --- |
| COc1ccc2c(c1)nnn2-c1ccc(CNS(N)(=O)=O)cc1 [Example 51, N-(4-(5-methoxy-1H-benzo[d][1,2,3]triazol-1-yl)benzyl)sulfamide Hydrochloride] | < 1000 |
| COc1ccc2nnn(-c3ccc(CNS(N)(=O)=O)cc3)c2c1 [Example 52, N-(4-(6-methoxy-H-benzo[d][1,2,3]triazol-1-yl)benzyl)sulfamide] | < 1000 |
| COc1cccc2nnn(-c3ccc(CNS(N)(=O)=O)cc3)c12 [Example 53, N-(4-(7-methoxy-1H-benzo[d][1,2,3]triazol-1-yl)benzyl)sulfamide] | > 10000 |
| COc1cc(OC)c2nnn(-c3ccc(CNS(N)(=O)=O)cc3)c2c1 [Example 54, N-(4-(4,6-dimethoxy-1H-benzo[d][1,2,3]triazol-1-yl)benzyl)sulfamide] | 1000 to 10000 |
| COc1cc2nnn(-c3ccc(CNS(N)(=O)=O)cc3)c2cc1OC [Example 55, N-(4-(5,6-dimethoxy-1H-benzo[d][1,2,3]triazol-1-yl)benzyl)sulfamide] | < 1000 |
| NS(=O)(=O)NCc1ccc(-n2nnc3ccccc32)c(F)c1 [Example 56, N-(4-(1H-benzo[d][1,2,3]triazol-1-yl)-3-fluorobenzyl)sulfamide] | < 1000 |
| NS(=O)(=O)NCc1ccc(-n2nnc3ccccc32)c(F)c1F [Example 57, N-(4-(1H-benzo[d][1,2,3]triazol-1-yl)-2,3-difluorobenzyl)sulfamide] | < 1000 |
| NS(=O)(=O)NCc1cc(F)c(-n2nnc3ccccc32)c(F)c1 [Example 58, N-(4-(1H-benzo[d][1,2,3]triazol-1-yl)-3,5-difluorobenzyl)sulfamide] | < 1000 |
| COc1ccc2c(c1)nnn2-c1ccc(CNS(N)(=O)=O)cc1Cl [Example 59, N-(3-chloro-4-(5-methoxy-1H-benzo[d][1,2,3]triazol-1-yl)benzyl)sulfamide] | < 1000 |
| COc1ccc2c(c1)nnn2-c1ccc(CNS(N)(=O)=O)c(F)c1 [Example 60, N-(2-fluoro-4-(5-methoxy-1H-benzo[d][1,2,3]triazol-1-yl)benzyl)sulfamide] | < 1000 |
| COc1ccc2c(c1)nnn2-c1ccc(CNS(N)(=O)=O)cc1F [Example 61, N-(4-(5-methoxy-1H-benzo[d][1,2,3]triazol-1-yl)-3-fluorobenzyl)sulfamide] | < 1000 |
| COc1ccc2c(c1)nnn2-c1c(F)cc(CNS(N)(=O)=O)cc1F [Example 64, N-(3,5-difluoro-4-(5-methoxy-1H-benzo[d][1,2,3]triazol-1-yl)-benzyl)sulfamide] | < 1000 |
| COc1ccc2c(c1)nnn2-c1ccc(CNS(N)(=O)=O)c(F)c1F [Example 65, N-(2,3-difluoro-4-(5-methoxy-1H-benzo[d][1,2,3]triazol-1-yl)-benzyl)sulfamide] | < 1000 |
| COc1ccc2c(c1)nnn2-c1ccc(CNS(N)(=O)=O)cc1C [Example 66, N-(4-(5-methoxy-1H-benzo[d][1,2,3]triazol-1-yl)-3-methylbenzyl)sulfamide] | < 1000 |
| COc1ccc2c(c1)nnn2-c1ccc(CNS(N)(=O)=O)cc1OC [Example 68, N-(3-methoxy-4-(5-methoxy-1H-benzo[d][1,2,3]triazol-1-yl)benzyl)sulfamide] | 1000 to 10000 |
| COc1cc2nnn(-c3ccc(CNS(N)(=O)=O)cc3)c2cc1C [Example 69, N-(4-(5-methoxy-6-methyl-1H-benzo[d][1,2,3]triazol-1-yl)benzyl)sulfamide] | 1000 to 10000 |

Results, then the compound that gave them:

| IC50 [nM] | Structure (SMILES) |
| --- | --- |
| < 1000 | COc1cc2nnn(-c3ccc(CNS(N)(=O)=O)cc3F)c2cc1C [Example 70, N-(3-fluoro-4-(5-methoxy-6-methyl-1H-benzo[d][1,2,3]triazol-1-yl)benzyl)sulfamide] |
| < 1000 | COc1cc2nnn(-c3ccc(CNS(N)(=O)=O)cc3F)c2cc1OC [Example 71, N-(4-(5,6-dimethoxy-1H-benzo[d][1,2,3]triazol-1-yl)-3-fluorobenzyl)sulfamide] |
| < 1000 | COc1ccc2c(c1)nnn2-c1cccc(CCNS(N)(=O)=O)c1 [Example 72, N-(3-(5-methoxy-1H-benzo[d][1,2,3]triazol-1-yl)phenethyl)sulfamide] |
| < 1000 | COc1ccc2c(c1)nnn2-c1ccc(CCNS(N)(=O)=O)cc1 [Example 73, N-(4-(5-methoxy-1H-benzo[d][1,2,3]triazol-1-yl)phenethyl)sulfamide Hydrochloride] |
| < 1000 | NS(=O)(=O)NCc1ccc(-n2nnc3cc(O)ccc32)c(F)c1 [Example 74, N-(3-fluoro-4-(5-hydroxy-1H-benzo[d][1,2,3]triazol-1-yl)benzyl)sulfamide] |
| > 10000 | Cc1ccc2c(c1)nnn2-c1ccc(CNS(N)(=O)=O)cc1F [Example 75, N-(3-fluoro-4-(5-methyl-1H-benzo[d][1,2,3]triazol-1-yl)benzyl)sulfamide] |
| > 10000 | CCOc1ccc2c(c1)nnn2-c1ccc(CNS(N)(=O)=O)cc1F [Example 76, N-(4-(5-ethoxy-1H-benzo[d][1,2,3]triazol-1-yl)-3-fluorobenzyl)sulfamide] |
| > 10000 | CC(C)Oc1ccc2c(c1)nnn2-c1ccc(CNS(N)(=O)=O)cc1F [Example 77, N-(3-fluoro-4-(5-isopropoxy-1H-benzo[d][1,2,3]triazol-1-yl)benzyl)sulfamide] |
| < 1000 | COc1ccc2c(c1)nnn2-c1ccc(CNS(N)(=O)=O)nc1 [Example 78] |
| > 10000 | COc1ccc2c(c1)nnn2-c1ccc(CNS(N)(=O)=O)cn1 [Example 79, (N-(6-(5-methoxy-1H-benzo[d][1,2,3]triazol-1-yl)pyridin-3-yl)methyl)sulfamide] |
| < 1000 | COc1ccc2c(c1)nnn2-c1ccc(CN(C)S(N)(=O)=O)cc1 [Example 80] |
| < 1000 | COc1ccc2c(c1)nnn2-c1ccc(CN(C)S(N)(=O)=O)cc1F [Example 81, N-(3-fluoro-4-(5-methoxy-1H-benzo[d][1,2,3]triazol-1-yl)benzyl)-N-methylsulfamide] |
| < 1000 | COc1ccc2c(c1)nnn2-c1ccc(CN(C2CC2)S(N)(=O)=O)cc1 [Example 82, N-cyclopropyl-N-(4-(5-methoxy-1H-benzo[d][1,2,3]triazol-1-yl)benzyl)sulfamide] |
| < 1000 | COc1ccc2c(c1)nnn2-c1ccc([C@H](C)NS(N)(=O)=O)cc1 [Example 83, (S)—N-(1-(4-(5-methoxy-1H-benzo[d][1,2,3]triazol-1-yl)phenyl)ethyl)sulfamide] |
| > 10000 | NS(=O)(=O)NCc1ccc(-n2nnc3cc(C(F)(F)F)ccc32)cc1 [Example 84] |
| > 10000 | NS(=O)(=O)NCc1ccc(-n2nnc3cc(C(F)(F)F)ccc32)c(F)c1 [Example 85] |
| > 10000 | NS(=O)(=O)NCc1ccc(-n2nnc3cc(OCF)ccc32)c(F)c1 [Example 88] |
| > 10000 | NS(=O)(=O)NCc1ccc(-n2nnc3cc(OC(F)(F)F)ccc32)cc1 [Example 89] |
| > 10000 | NS(=O)(=O)NCc1ccc(-n2nnc3cc(OC(F)(F)F)ccc32)c(F)c1 [Example 90] |
| < 1000 | NS(=O)(=O)NCc1ccc(-n2nnc3cc(OC(F)F)ccc32)c(F)c1 [Example 91] |
| < 1000 | COc1cc2nnn(-c3ccc(CNS(N)(=O)=O)cc3)c2cc1F [Example 92, N-(4-(6-fluoro-5-methoxy-1H-benzo[d][1,2,3]triazol-1-yl)benzyl)sulfamide] |
